“Also recorded” adds a separate entry of the source. No end group written: not given here.
Columns and labels:
[1] = test system: mesenteric artery of spontaneously hypertensive rats; details: two days infusion; cited from earlier work
[2] = test system: guinea pig hearts, isolated and perfused in vitro; assay: Coronary flow in isolated guinea pig hearts perfused in a Langendorff apparatus
Procedure: (§1) 1-a The coronary system was deemed a suitable model for studying the influence of RLX on dilation of blood vessels. Rat and guinea pig hearts, isolated and perfused in vitro in a Langendorff apparatus, were used to evaluate whether RLX causes changes in the coronary flow. After 30 minutes stabilization, in some experiments RLX (30 ng/ml) was added to the perfusion fluid and perfusion lasted for 20 minutes. In other experiments,RLX (30 ng/ml) was injected as a bolus into the aortic cannula. The perfusates were collected and the coronary flow determined. […] The percentage of basal flow variation is depicted versus time. In these diagrams (as well as in the next ones) values are expressed as mean ± SE (standard error). Statistic analyses were done calculating the Student's test (P), whose value is shown in the diagrams.
To clarify the mechanisms of action of RLX on dilation of coronary vessels, nitric oxide (NO) production and histamine release were assayed in the perfused guinea pig hearts. NO, which is known to be a powerful vasodilatory agent, was measured by determination of nitrites (stable end-products of NO metabolism) in the perfusates. […]

BASM cells = assay: Bovine aorta smooth muscle (BASM) cells cultured in vitro: actin cytoskeleton and intracellular cGMP; assay type: cell-based; details: for increase in intracellular cGMP levels: BASM cells
From the text: 1-b Smooth muscle cells of the vascular wall obtained from bovine aorta (BASM) and cultured in vitro are a suitable in vitro model for understanding the mode of action of RLX on blood vessels.
[…] RLX caused a striking concentration-related increase in intracellular cGMP levels (400% and 900% over the values of the untreated cultures).

[3] = test system: isolated serosal rat and guinea pig MCs and rat mesenteric MCs; assay: Mast cell histamine release, degranulation and intracellular Ca2+; assay type: cell-based; details: for calcium-ionophore-induced and anaphylactic histamine release: mast cells stimulated by ionophore or sensitized by allergen
From the text: 1-c Mast cells (MCs) are known to produce and release vasoactive substances. It has therefore been investigated whether RLX also exerts its vasodilatory action by influencing MC function. […] This effect is mediated by a stimulation of NO production. In fact, the RLX-induced depression of histamine release evoked by calcium ionophore was prevented by MeArg and potentiated by SOD. Moreover, RLX blunted the rise in the intracellular Ca^2+ levels evoked by calcium ionophore in a concentration-related fashion (41% decrease with 10 ng/mL RLX and 97% decrease with 100 ng/mL RLX). From these findings, it emerges that the vasodilatory action of RLX is not due to histamine release by MCs but, rather, to production of the vasodilatory agent NO, in keeping with its effect in the coronary system. The above results are summarized in the diagrams A and B in FIG. 4.
The degree of inhibition was the function of the dose of relaxin being used.

[4] = test system: rat hearts, isolated and perfused in vitro; assay: Coronary flow in isolated rat hearts perfused in a Langendorff apparatus; details: RLX 30 ng/ml in perfusion fluid for 20 minutes or as bolus into the aortic cannula; rat heart (FIG. 1A)
Procedure: as §1

[5] = Cholesterol and triglycerides in peripheral blood serum; assay type: in vivo; details: peripheral blood serum after RLX administration
male rats = assay: Plasma hemostasis factors, circulating platelets and megacaryocytes in male rats injected intraperitoneally with RLX; assay type: in vivo, rat
Procedure: A second series of experiments was performed in male rats injected intraperitoneally with RLX and sacrificed 20 minutes later. Before sacrifice, blood and plasma samples were collected for studying plasma hemostasis factors and number of circulating platelets; upon sacrifice, spleen specimens were taken for studying the morphology of megacaryocytes.

[6] = test system: perfused guinea pig hearts; assay: Nitric oxide (nitrite) production and histamine release in perfused guinea pig hearts
Procedure: To clarify the mechanisms of action of RLX on dilation of coronary vessels, nitric oxide (NO) production and histamine release were assayed in the perfused guinea pig hearts. NO, which is known to be a powerful vasodilatory agent, was measured by determination of nitrites (stable end-products of NO metabolism) in the perfusates. In some experiments, N^W -monomethyl L-arginine (MeArg), a NO-synthase inhibitor, was added to the perfusion fluid before giving RLX as a bolus; in other experiments,guinea pigs were pretreated with E.coli lipopolysaccharide (LPS), an inducer of NO-synthase activity before heart isolation and perfusion. […] This was further confirmed by the experiments with MeArg and LPS, drugs that blunted and enhanced the RLX-induced increase in the coronary flow, respectively (FIG. 2).

deep artery of the penis = assay: Blood flow in the deep artery of the penis by echo-doppler after injection into the cavernous bodies; assay type: in vivo, human
Procedure: 1-d The blood flow in the penis is influenced by local NO production. Based on the ability of RLX to stimulate NO synthesis, the effect of the peptide on the blood flow in the deep artery of the penis was investigated. RLX (sterilized by microfiltration) was injected into the cavernous bodies of 4 human normal volunteers at a dose of 10 ng, and the blood flow measured by an echo-doppler Acuson 128, 1-6 minutes after the injection. […] In FIG. 5 the echo-doppler images are reported, showing the flow under normal conditions (diagram A), 1 min. after RLX injection (diagram B) and 5 min. after RLX injection (diagram C).

heart atria = details: Osheroff et al.; cited from earlier work
[7] = Blood osmolality and sodium concentration in rats after RLX; assay type: in vivo, rat; details: rats after RLX (from 142±4 before)
[8] = test system: isolated platelets from human volunteers and rabbits; assay: Aggregation of isolated platelets incubated with RLX and stimulated with proaggregants; assay type: cell-based, human and rabbit
Procedure: A first series of experiments was carried out on isolated platelets from human volunteers and rabbits, incubated with RLX and then stimulated with proaggregants.
This effect was concentration-relatedand attained a maximum of 80% inhibition with 100 ng/mL RLX.

atrial myocardiocytes = assay: ANP secretion from atrial myocardiocytes of rats after intraperitoneal RLX; assay type: in vivo, rat
Procedure: 3-a ANP secretion was studied in rats following intraperitoneal administration of 10 μg RLX. It is known that atrial myocardiocytes have an endocrine function, being able to synthesize and release a peptide, called atrial natriuretic peptide (ANP) that, besides its firstly recognized effect in stimulating natriuresis, has other properties such as a negative action on blood pressure due to a decrease in the vascular tone and a shift of the plasma fluid in the interstitial compartment. A possible relationship has therefore been searched for between RLX and ANP by evaluating the amount of immunoreactive ANP and the ultrastructural features of atrial myocardiocytes of rats upon RLX treatment. […] No appreciable changes were found in the extension of the ergastoplasm and Golgi apparatus. […] Determinations of ANP content in rat atria homogenates by RIA before and after in vivo administration of RLX are in agreement with the EM findings.

rat RLX: rat relaxin infused for two days in a cited 1989 study (Relaxin B chain RVSEEWMDQVIQVCGRGYARAWIEVCGASVGRLAL; Relaxin A chain QSGALLSEQCCHIGCTRRSIAKLC; ends and bridges not checked; cysteine pairing not given here; UniProt P01347 23-57; P01347 163-186, looked up)
vasoconstrictive effects of norepinephrine and vasopressin [1]: blunted

CNC(=N)NCCC[C@H](N)C(=O)O [MeArg, N^W -monomethyl L-arginine, reference compound]
effect on the RLX-induced increase in the coronary flow ([2]; MeArg added to perfusion fluid before RLX bolus, LPS pretreatment of guinea pigs before heart isolation): blunted | effect on the RLX-induced increase in cGMP (BASM cells; pretreatment of BASM cells): depression | effect on the RLX-induced depression of histamine release evoked by calcium ionophore ([3]; mast cells): prevented

relaxin [RLX]
coronary flow [4]: increases significantly | reduction of cholesterol concentration [5]: up to 38% | reduction of triglycerides concentration [5]: ≤ 55% | F 1 + 2 (male rats; rat plasma, RLX-Treated): 0.028 ± 0.01 nM/mL | PT (male rats; rat plasma, RLX-Treated): 15.1 ± 0.5 s | aPTT (male rats; rat plasma, RLX-Treated): 19 ± 2.5 s | tPA Ag (male rats; rat plasma, RLX-Treated): 0.52 ± 0.1 ng/mL | Fibrinogen (male rats; rat plasma, RLX-Treated, 20 minutes after intraperitoneal injection): 185 ± 26 mg/dL | tPA activity (male rats; rat plasma, RLX-Treated, P < 0.001): 0.37 ± 0.03 U/mL | PAI-1 activity (male rats; rat plasma, RLX-Treated, P < 0.05): 11.7 ± 0.7 U/mL | coagulation factors such as fibrinogen and prothrombin fragments F1+2 (male rats; rats): slight decrease | plasma levels of tPA and PAI-1 (male rats; rats): significant, concentration-dependant increase | number of circulating platelets (male rats; rats, in vivo): reduction in the number of circulating platelets | amount of histamine in the perfusates [6]: significantly reduced | nitrite amounts in the perfusates (NO production) ([6]; versus basal value): two-fold increase over the basal value | coronary flow ([2]; RLX 30 ng/ml in perfusion fluid for 20 minutes or as bolus into the aortic cannula, guinea pig heart (FIG. 1B)): increases significantly | blood flow in the deep artery of the penis (deep artery of the penis; 10 ng into the cavernous bodies, 4 human normal volunteers, 1-6 minutes after injection, versus basal flow): striking increase | erection (deep artery of the penis; two subjects, 5-10 min. after RLX injection): erection was also observed | increase in intracellular cGMP levels (BASM cells; 10 ng/mL RLX for 1 hour): 400 % over the values of the untreated cultures | increase in intracellular cGMP levels (BASM cells; 100 ng/mL RLX for 1 hour): 900 % over the values of the untreated cultures | actin cytoskeleton (immunocytochemistry with anti-actin antibodies) (BASM cells; BASM cells incubated for 4 hours with 100 ng/mL RLX): induces changes in the actin cytoskeleton | binding to heart atria (heart atria): binding of RLX to heart atria | rhythm and contractions of the in vitro isolated atria (heart atria): increase of the rhythm and contractions | decrease of the rise in intracellular Ca2+ levels evoked by calcium ionophore ([3]; 10 ng/mL RLX, mast cells): 41% | decrease of the rise in intracellular Ca2+ levels evoked by calcium ionophore ([3]; 100 ng/mL RLX, mast cells): 97% | MC degranulation ([3]; mast cells): inhibits | calcium-ionophore-induced and anaphylactic histamine release [3]: inhibits | calcium-ionophore-induced and anaphylactic histamine release ([3]; listed as relaxin): inhibit or, depending on the dose, totally suppress; also recorded: greatly inhibiting | basal liberation of histamine by mastocytes ([3]; unstimulated mastocytes): no effect whatsoever | sodium concentration [7]: 136±2 mEq/1 | maximum inhibition of platelet aggregation induced by proaggregants ([8]; 100 ng/mL RLX): 80% | thromboxane production in platelets ([8]; FIG. 7): inhibition of thromboxane production | endogenous NO synthesis in platelets ([8]; FIG. 8): stimulation of endogenous NO synthesis | intracellular cGMP in platelets ([8]; FIG. 9): rise in intracellular cGMP | cytosolic Ca2+ in platelets ([8]; FIG. 10): decrease of cytosolic Ca^2+ | platelet ultrastructure during aggregation ([8]; ultrastructural examination): hinders the conformational modifications and granule exocytosis | amount of immunoreactive ANP and number of ANP-storing granules in atrial myocardiocytes (atrial myocardiocytes; rats, 10 μg RLX intraperitoneal, twenty minutes after administration): strongly decreased | secretion of ANP from the atriocytes (atrial myocardiocytes; summary statement): inhibit or, depending on the dose, totally suppress
